Results: article PMC7580834, “Inhibition mechanism of naphthylphenylamine derivatives acting on the CDC25B dual phosphatase and analysis of the molecular processes involved in the high cytotoxicity exerted by one selected derivative in melanoma cells” (Journal of Enzyme Inhibition and Medicinal Chemistry, 2020)
“Also recorded” adds a separate entry of the source.

Assays:
A2058 cells [1] = assay: Apoptosis by cytofluorimetry after PI incorporation (subdiploid DNA content); format: cell-based, human; details: 5 or 10 µM, 24-72 h
Description: (§1) The human melanoma cell lines A375 and A2058, deriving from a primary tumour or lymph nodal metastasis, respectively, were kindly provided from CEINGE (Naples, Italy). Cells were grown in DMEM supplemented with 10% FBS, 2 mM L-glutamine, 100 IU/mL penicillin G and 100 µg/mL streptomycin in humidified incubator at 37 °C under 5% CO2 atmosphere. The cell line BJ-5ta, a human skin fibroblast immortalised with the human telomerase reverse transcriptase[30] was cultured in a 4:1 mixture of DMEM and Medium 199 supplemented with 4 mM L-glutamine, 4.5 g/L glucose, 1.5 g/L sodium bicarbonate, 10% FBS, 100 IU/mL penicillin G, […] streptomycin in humidified incubator at 37 °C under 5% CO2 atmosphere. All cells were split and seeded every 3 days and used during their exponential phase of growth. Cell treatments were usually carried out after 24 h from plating.
(§2) Cytofluorimetric analysis was used to determine the number of apoptotic nuclei essentially as previously described. Briefly, cells were seeded into six-well plates at 3 × 10^5 cells/well and after 24 h were treated with 4a or 0.5% (v/v) DMSO and incubated for different times. Then, cells were harvested with trypsin, and centrifuged, and the pellets were resuspended in 200 µL of a hypotonic lysis solution containing 50 µg/mL PI. After incubation at 4 °C for 30 min, cells were analysed with a FACScan flow cytometer (Becton Dickinson, Franklin Lakes, NJ, USA) to evaluate the presence of nuclei with DNA content lower than diploid.

A375 cells [2] = assay: as above; format: cell-based, human; details: 5 or 10 µM, 24-72 h
Description: as §1, §2

BJ-5ta cells = assay: as above; format: cell-based, human; details: 10 µM, 24-, 48- or 72-h, nontumorigenic fibroblasts
Description: as §1, §2

[3] = system: cytochrome c in A2058 cells; assay: Cytochrome c subcellular localisation (immunofluorescence and Western blotting of fractions); format: cell-based, human; details: 10 µM, 24 h
Description: (§3) To obtain the total protein extract, cells were seeded into 6-well-plates (3 × 10^5 cells/plate) for 24 h at 37 °C and then treated with 4a or 0.5% (v/v) DMSO. After treatment, cells were harvested, washed with PBS, and then lysed in ice-cold modified radio immunoprecipitation assay (RIPA) buffer (50 mM Tris•HCl, pH 7.4, 150 mM NaCl, 1% Nonidet P-40, 0.25% sodium deoxycholate, 1 mM Na3VO4 and 1 mM NaF), supplemented with protease inhibitors and incubated for 30 min on ice. The supernatant, obtained after centrifugation at 13200 g for 30 min at 4 °C, constituted the total protein extract. Protein concentration was determined by the Bradford method, using bovine serum albumin (BSA) as standard. To obtain the cytosolic and mitochondrial fractions, cells were plated at a density of 2 × 10^6 cells/plate for 24 h at 37 °C. After the treatment with 4a or 0.5% (v/v) DMSO, cells were harvested, washed in PBS, and then resuspended in buffer A (5 mM Hepes, pH 7.4, 250 mM mannitol, 0.5 mM EGTA, 0.1% BSA), supplemented with protease inhibitors, and homogenised. The homogenate was centrifuged at 600 g for 5 min at 4 °C and the supernatant was then centrifuged at 10300 g for 10 min at 4 °C. The resulting supernatant represented the cytosolic fraction, whereas the pellet, constituting the mitochondrial fraction was resuspended in RIPA buffer. Protein concentration was determined as previously indicated. Equal amounts of total, cytosolic or mitocondrial protein extracts were used for Western blotting analysis. Briefly, protein samples were dissolved in SDS-reducing loading buffer, run on sodium dodecylsulfate polyacrylamide gel electrophoresis (SDS/PAGE), and then transferred to Immobilon P membrane (Millipore, Saint Louis, MO, USA). The filter was incubated with the specific primary antibody at 4 °C overnight and then with the secondary antibody at room temperature for 1 h. Membranes were then analysed by an enhanced chemiluminescence reaction using WesternBright ECL (Advansta, San Jose, CA, USA) according to manufacturer’s instructions; signals were visualised by autoradiography. The analysis of pAkt protein levels was performed as previously described. Briefly, filters were first incubated with the anti-pAkt primary antibody and then with the secondary antibody and membranes were analysed by an enhanced chemiluminescence reaction as previously indicated. The same filters were then stripped, using AbCam (Cambridge, UK) stripping solution, pH 2 (200 mM glycine, 3.5 mM SDS, 1% Tween-20) at 45 °C for 30 min, washed 3 times with PBS-Tween 0.1%, incubated with anti-Akt primary antibody and then with the relative secondary antibody. Signals were detected as previously specified.
(§4) Immunofluorescence experiments were carried out essentially as previously described. […]

[4] = system: cytochrome c in A375 cells; assay: as above; format: cell-based, human; details: 10 µM, 24 h
Description: as §3, §4

A2058 cells [5] = assay: Western blotting of total cell extracts (CDC25A, -B, -C, p53, pAkt); format: cell-based, human; details: 10 µM
Description: as §3

A375 cells [6] = assay: as above; format: cell-based, human; details: 10 µM
Description: as §3

[7] = system: A2058 and A375 melanoma cell lines; parameters: method as in PMID 31294975; details: 10 µM; cited from earlier work

With `CCOC(=O)c1cccc(Nc2cc(OC)cc3ccccc23)c1` [4a] the “apoptosis (cells with a hypodiploid DNA content)” value (A2058 cells [1]) was “dose- and time-dependent increase”, the “apoptosis (cells with a hypodiploid DNA content)” value (A375 cells [2]) was “dose- and time-dependent increase” and the “apoptosis (cells with a subdiploid DNA content)” value (BJ-5ta cells) was “does not exert any apoptotic effect”. For the same molecule, the “cytochrome c localisation, Western blotting of cytosolic and mitochondrial extracts” value [3] was “significant cytosolic translocation”, the “cytochrome c localisation, immunofluorescence” value [3] was “induces a cytosolic translocation of cytochrome c” and the “cytochrome c localisation, Western blotting of cytosolic and mitochondrial extracts” value [4] was “significant cytosolic translocation”. The “cytochrome c localisation, immunofluorescence” value [4] was “induces a cytosolic translocation of cytochrome c”, the p53 protein levels (A2058 cells [5]; 16- and 24-h) was “clear and significant increase” and the pAkt protein levels (A2058 cells [5]; 30-min) was “significant and early decrease”. For the same molecule, the “CDC25A, -B and -C protein levels” value (A2058 cells [5]; essentially after 24- and 48-h) was “reduction of protein levels of all three forms”, the p53 protein levels (A375 cells [6]; 16- and 24-h) was “clear and significant increase” and the pAkt protein levels (A375 cells [6]; 30-min) was “significant and early decrease”. The “CDC25A, -B and -C protein levels” value (A375 cells [6]; essentially after 24- and 48-h) was “reduction of protein levels of all three forms”, the “cell cycle of melanoma cells” value [7] was “arrest of cells in G2/M phase; also recorded: arrest in the G2/M phase; also recorded: arrested the cell cycle of melanoma cells in G2/M phase” and the “cell growth of melanoma cells” value [7] was “reduced the cell growth rate; also recorded: significantly reduced; also recorded: significant antiproliferative action”. The pCDK1 protein levels [7] was “increase”.
